Columns and labels:
Format in all cases: in vivo
[1] = tested on: Echinochloa crus-galli var. formosensis; assay: Test Example 1: herbicidal effect test by soil application in paddy rice; conditions: 120 g active ingredient per 10 ares, applied immediately after sowing, flooded pots, 14 days after application; for pest or weed control at 1200 g/ha: Echinochloa crus-galli, soil, 336 h, read-out: weed inhibition rate
Summary of the method: (§1)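 Treatment: 120 g active ingredient per 10 ares as a water-diluted emulsifiable concentrate, dropped onto flooded pots immediately after sowing. Thirty seeds per species went 0–1 cm into puddled paddy soil with 16:16:16 fertilizer, with ~3 cm flooding maintained in a glass greenhouse.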

Scirpus juncoides [2] = assay: as above; conditions: 120 g active ingredient per 10 ares, applied immediately after sowing, flooded pots, 14 days after application; for pest or weed control at 1200 g/ha: Schoenoplectiella juncoides, soil, 336 h, read-out: weed inhibition rate
Summary of the method: as §1

[3] = tested on: Echinochloa crus-galli var. formosensis; assay: Test Example 2: herbicidal effect test by application during growth period of paddy rice; conditions: 120 g per 10 ares, applied seven days after sowing, flooded pots, 14 days after application; for inhibition at 1200 g/ha: Echinochloa crus-galli, read-out: weed inhibition rate
Summary of the method: (§2)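 Herbicidal effect was scored 14 days after treatment, in duplicate per concentration. Weeds sown 0–1 cm deep in puddled, fertilized paddy soil under about 3 cm of standing water received a water-diluted emulsifiable concentrate by dropper 7 days post-sowing, at 120 g a.i. per 10 ares.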

Scirpus juncoides [4] = assay: as above; conditions: 120 g per 10 ares, applied seven days after sowing, flooded pots, 14 days after application; for inhibition at 1200 g/ha: Schoenoplectiella juncoides, read-out: weed inhibition rate
Summary of the method: as §2

Digitaria ciliaris [5] = assay: Test Example 3: herbicidal effect test by soil application in upland field; conditions: 120 g per 10 ares, sprayed one day after sowing, 14 days after application; for inhibition at 1200 g/ha: Digitaria ciliaris, read-out: weed inhibition rate
Summary of the method: (§3)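 Weed inhibition (%) was assessed 14 days after treatment, in duplicate per concentration group. Seeds had been mixed into the upper 1 cm of upland alluvial loam, and the soil surface was sprayed one day later with the diluted emulsifiable concentrate at 120 g active ingredient per 10 ares.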

Echinochloa crus-galli [6] = assay: as above; conditions: 120 g per 10 ares, sprayed one day after sowing, 14 days after application; for inhibition at 1200 g/ha: Echinochloa crus-galli, read-out: weed inhibition rate
Summary of the method: as §3

Digitaria ciliaris [7] = assay: Test Example 4: herbicidal effect test by stem and leaf treatment in upland field; conditions: 120 g per 10 ares, sprayed seven days after sowing, upland soil, 14 days after application; for inhibition at 1200 g/ha: Digitaria ciliaris, read-out: weed inhibition rate
Echinochloa crus-galli [8] = assay: as above; conditions: 120 g per 10 ares, sprayed seven days after sowing, upland soil, 14 days after application; for inhibition at 1200 g/ha: Echinochloa crus-galli, read-out: weed inhibition rate

CC(=O)O[C@H]1C[C@]2(C)O[C@@]1(C(C)C)C[C@H]2OCc1ccccc1F (racemic) [1-480, [(1R,2S,4S,SR)-5-[(2-fluorophenyl)methoxy]-4-methyl-1-isopropyl-7-oxabicyclo[2.2.1]heptan-2-yl]acetate]
≥ 80%: weed inhibition rate [1] | weed inhibition rate (Scirpus juncoides [2]) | weed inhibition rate [3] | weed inhibition rate (Scirpus juncoides [4]) | weed inhibition rate (Digitaria ciliaris [5]) | weed inhibition rate (Echinochloa crus-galli [6]) | weed inhibition rate (Digitaria ciliaris [7]) | weed inhibition rate (Echinochloa crus-galli [8])

CC(C)[C@]12C[C@@H](OCc3ccccc3C(F)(F)F)[C@](C)(C[C@@H]1Cl)O2 [1-640, (1R,2S,4S,5R)-2-chloro-1-isopropyl-4-methyl-5-[[2-(trifluoromethyl)phenyl]methoxy]-7-oxabicyclo[2.2.1]heptane]
≥ 80%: pest or weed control at 1200 g/ha [1] | pest or weed control at 1200 g/ha (Scirpus juncoides [2]) | inhibition at 1200 g/ha [3] | inhibition at 1200 g/ha (Scirpus juncoides [4])

Cc1noc(C)c1CO[C@@H]1C[C@]2(C(C)C)O[C@@]1(C)C[C@@H]2Cl [1-663, 4-[[(1S,2R,4R,5S)-5-chloro-4-isopropyl-1-methyl-7-oxabicyclo[2.2.1]heptan-2-yl]oxymethyl]-3,5-dimethyl-isoxazole]
≥ 80%: pest or weed control at 1200 g/ha [1] | pest or weed control at 1200 g/ha (Scirpus juncoides [2]) | inhibition at 1200 g/ha [3] | inhibition at 1200 g/ha (Scirpus juncoides [4])

CC(C)C12CC(OCc3ccccc3OC(F)(F)F)C(C)(CC1I)O2 (centres unmarked) [1-1418, 2-iodo-1-isopropyl-4-methyl-5-[[2-(trifluoromethoxy)phenyl]methoxy]-7-oxabicyclo[2.2.1]heptane]
≥ 80%: pest or weed control at 1200 g/ha [1] | pest or weed control at 1200 g/ha (Scirpus juncoides [2]) | inhibition at 1200 g/ha [3] | inhibition at 1200 g/ha (Scirpus juncoides [4])

CC(C)[C@@]12C=C[C@@](C)(O1)[C@@H](OCc1ccccc1F)C2 [3-750, (1S,4R,5S)-5-[(2-fluorophenyl)methoxy]-4-methyl-1-isopropyl-7-oxabicyclo[2.2.1]hept-2-ene]
≥ 80%: pest or weed control at 1200 g/ha [1] | pest or weed control at 1200 g/ha (Scirpus juncoides [2]) | inhibition at 1200 g/ha [3] | inhibition at 1200 g/ha (Scirpus juncoides [4]) | inhibition at 1200 g/ha (Digitaria ciliaris [5]) | inhibition at 1200 g/ha (Echinochloa crus-galli [6]) | inhibition at 1200 g/ha (Digitaria ciliaris [7]) | inhibition at 1200 g/ha (Echinochloa crus-galli [8])

CC(C)[C@]12C[C@@H](OCc3ccccc3OC(F)(F)F)[C@](C)(C[C@@H]1I)O2 [1-750, (1R,2S,4S,5R)-2-iodo-1-isopropyl-4-methyl-5-[[2-(trifluoromethoxy)phenyl]methoxy]-7-oxabicyclo[2.2.1]heptane]
≥ 80%: pest or weed control at 1200 g/ha [1] | pest or weed control at 1200 g/ha (Scirpus juncoides [2]) | inhibition at 1200 g/ha [3] | inhibition at 1200 g/ha (Scirpus juncoides [4])

Cc1noc(C)c1CO[C@@H]1C[C@]2(C(C)C)O[C@@]1(C)C[C@@H]2I [1-790, 4-[[(1S,2R,4R,5S)-5-iodo-4-isopropyl-1-methyl-7-oxabicyclo [2.2.1]heptane-2-yl]oxymethyl]-3,5-dimethyl-isoxazole]
≥ 80%: pest or weed control at 1200 g/ha [1] | pest or weed control at 1200 g/ha (Scirpus juncoides [2]) | inhibition at 1200 g/ha [3] | inhibition at 1200 g/ha (Scirpus juncoides [4])

CC(C)C12CC(OCc3ccccc3C(F)(F)F)C(C)(CC1I)O2 (centres unmarked) [1-1433, 2-iodo-1-isopropyl-4-methyl-5-[[2-(trifluoromethyl)phenyl]methoxy]-7-oxabicyclo[2.2.1]heptane]
≥ 80%: pest or weed control at 1200 g/ha [1] | pest or weed control at 1200 g/ha (Scirpus juncoides [2]) | inhibition at 1200 g/ha [3] | inhibition at 1200 g/ha (Scirpus juncoides [4])

Cc1ccccc1CO[C@H]1C[C@]2(C(C)C)C=C[C@@]1(C)O2 [3-749, (1S,4R,5S)-4-methyl-5-[(2-methylphenyl)methoxy]-1-isopropyl-7-oxabicyclo[2.2.1]hept-2-ene]
≥ 80%: pest or weed control at 1200 g/ha [1] | pest or weed control at 1200 g/ha (Scirpus juncoides [2]) | inhibition at 1200 g/ha [3] | inhibition at 1200 g/ha (Scirpus juncoides [4]) | inhibition at 1200 g/ha (Digitaria ciliaris [5]) | inhibition at 1200 g/ha (Echinochloa crus-galli [6]) | inhibition at 1200 g/ha (Digitaria ciliaris [7]) | inhibition at 1200 g/ha (Echinochloa crus-galli [8])

CC(C)[C@]12CC(OCc3ccccc3OC(F)(F)F)[C@](C)(C[C@@H]1Cl)O2 (mixture of isomers) [1-627, (1R,2S,4S,SR)-2-chloro-1-isopropyl-4-methyl-5-[[2-(trifluoromethoxy)phenyl]methoxy]-7-oxabicyclo[2.2.1]heptane]
≥ 80%: pest or weed control at 1200 g/ha [1] | pest or weed control at 1200 g/ha (Scirpus juncoides [2]) | inhibition at 1200 g/ha [3] | inhibition at 1200 g/ha (Scirpus juncoides [4])

C#CCO[C@H]1C[C@]2(C)O[C@@]1(C(C)C)C[C@H]2OCc1ccccc1F [1-1607, (1S,2R,4R,5S)-2-[(2-fluorophenyl)methoxy]-1-methyl-4-isopropyl-5-prop-2-ynoxy-7-oxabicyclo[2.2.1]heptane]
≥ 80%: pest or weed control at 1200 g/ha [1] | pest or weed control at 1200 g/ha (Scirpus juncoides [2]) | inhibition at 1200 g/ha [3] | inhibition at 1200 g/ha (Scirpus juncoides [4]) | inhibition at 1200 g/ha (Digitaria ciliaris [5]) | inhibition at 1200 g/ha (Echinochloa crus-galli [6]) | inhibition at 1200 g/ha (Digitaria ciliaris [7]) | inhibition at 1200 g/ha (Echinochloa crus-galli [8])

CC(C)C12CC(OCc3ccsc3)C(C)(CC1Br)O2 (centres unmarked) [1-1390, 5-bromo-1-methyl-4-isopropyl-2-(thiophen-3-ylmethoxy)-7-oxabicyclo[2.2.1]heptane]
≥ 80%: pest or weed control at 1200 g/ha [1] | pest or weed control at 1200 g/ha (Scirpus juncoides [2]) | inhibition at 1200 g/ha [3] | inhibition at 1200 g/ha (Scirpus juncoides [4]) | inhibition at 1200 g/ha (Digitaria ciliaris [5]) | inhibition at 1200 g/ha (Echinochloa crus-galli [6]) | inhibition at 1200 g/ha (Digitaria ciliaris [7]) | inhibition at 1200 g/ha (Echinochloa crus-galli [8])

Cc1noc(C)c1COC1CC2(C(C)C)OC1(C)CC2Cl (centres unmarked) [1-1325, 4-[(5-chloro-4-isopropyl-1-methyl-7-oxabicyclo[2.2.1]heptan-2-yl)oxymethyl]-3,5-dimethyl-isoxazole]
≥ 80%: pest or weed control at 1200 g/ha [1] | pest or weed control at 1200 g/ha (Scirpus juncoides [2]) | inhibition at 1200 g/ha [3] | inhibition at 1200 g/ha (Scirpus juncoides [4])

CC(C)[C@@]12C[C@H](OCc3ccccn3)[C@@](C)(C[C@H]1I)O2 [1-1126, 2-[[(1R,2S,4S,5R)-5-iodo-1-methyl-4-isopropyl-7-oxabicyclo[2.2.1]heptan-2-yl]oxymethyl]pyridine]
≥ 80%: pest or weed control at 1200 g/ha [1] | pest or weed control at 1200 g/ha (Scirpus juncoides [2]) | inhibition at 1200 g/ha [3] | inhibition at 1200 g/ha (Scirpus juncoides [4]) | inhibition at 1200 g/ha (Digitaria ciliaris [5]) | inhibition at 1200 g/ha (Echinochloa crus-galli [6]) | inhibition at 1200 g/ha (Digitaria ciliaris [7]) | inhibition at 1200 g/ha (Echinochloa crus-galli [8])

CC(C)C12CC(OCc3ccncc3)C(C)(CC1Cl)O2 (centres unmarked) [1-1322, 4-[(5-chloro-4-isopropyl-1-methyl-7-oxabicyclo[2.2.1]heptan-2-yl)oxymethyl]pyridine]
≥ 80%: pest or weed control at 1200 g/ha (Scirpus juncoides [2]) | inhibition at 1200 g/ha (Scirpus juncoides [4])

COC(=O)c1ccccc1COC1CC2(C(C)C)OC1(C)CC2Cl (centres unmarked) [1-1310, methyl 2-[(5-chloro-4-isopropyl-1-methyl-7-oxabicyclo[2.2.1]heptan-2-yl)oxymethyl]benzoate]
≥ 80%: pest or weed control at 1200 g/ha (Scirpus juncoides [2]) | inhibition at 1200 g/ha (Scirpus juncoides [4])

CC(C)[C@]12C[C@@H](OCc3ccccc3C(F)(F)F)[C@](C)(C[C@@H]1I)O2 [1-765, (1R,2S,4S,5R)-2-iodo-1-isopropyl-4-methyl-5-[[2-(trifluoromethyl)phenyl]methoxy]-7-oxabicyclo[2.2.1]heptane]
≥ 80%: pest or weed control at 1200 g/ha [1] | pest or weed control at 1200 g/ha (Scirpus juncoides [2]) | inhibition at 1200 g/ha [3] | inhibition at 1200 g/ha (Scirpus juncoides [4])

CC(C)C12CC(OCc3ccccc3C(F)(F)F)C(C)(CC1Cl)O2 (centres unmarked) [1-1301, 5-chloro-1-methyl-4-isopropyl-2-[[2-(trifluoromethyl)phenyl]methoxy]-7-oxabicyclo[2.2.1]heptane]
≥ 80%: pest or weed control at 1200 g/ha [1] | pest or weed control at 1200 g/ha (Scirpus juncoides [2]) | inhibition at 1200 g/ha [3] | inhibition at 1200 g/ha (Scirpus juncoides [4])
